Results: patent US10294234B2, “HIV inhibitor compounds” (priority 2017, dated 2019)
Where two headings read alike, the source gives them in different places.

Experiments:
[1] = tested on: HIV-1 (IIIB) in MT-4 cells; test: MT-4 HIV assay; type: cell-based; details: HIV-1 (IIIB), MT-4 cells, 5 days, Cell Titer Glo, read-out: EC50
In short: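 MT-4 cells infected with HIV-1 IIIB (1:250 stock dilution) were incubated with 1:3 serially diluted compounds in RPMI with 10% FBS for 5 days at 37 °C. Cell Titer Glo luminescence was the readout. Plates included mock-infected wells, no-drug wells and 5 uM AZT controls.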

[2] = microsomes
Procedure: Liver Microsomal Stability Protocol
Test compounds and one control compound (verapamil) were tested in 3 different species in duplicate sets.
Test compound concentration: 1 uM; Protein concentration: 0.5 mg/mL (for dog, rat, and human liver microsomes); Cofactor: NADPH-Regenerating system (NRS) solution; Time-points: 2, 12, 25, 45, and 65 minutes.
Reaction composition (in each incubation well) contains:
After plates were vortexed, they were centrifuged for 30 minutes to remove proteins. About 100 μL supernatant was removed to a new plate and diluted with 150 μL water. About 20 μL of the mixture was injected into LC/MS/MS system to monitor the compound's response. In vitro measured t1/2 was used to calculate Clint values.

[3] = Human immunodeficiency virus 1, MT4, 120 h

Molecule | EC50 [1, 3] | Human Pred Cl. [2] | Rat. Pred. Cl. [2] | EC50 [1]
COC(=O)N[C@H](C(=O)NN(Cc1c(F)cc(-c2ccn(CC(F)F)n2)cc1F)C[C@H](O)[C@H](Cc1ccc(C#Cc2ccc(N3CC4CCC(C3)N4C3COC3)nc2)cc1)NC(=O)[C@@H](NC(=O)OC)C(C)(C)C(F)(F)F)C(C)(C)C [Example 6, methyl ((5S,8S,9S,14S)-11-(4-(1-(2,2-difluoroethyl)-1H-pyrazol-3-yl)-2,6-difluorobenzyl)-9-hydroxy-15,15-dimethyl-8-(4-((6-(8-(oxetan-3-yl)-3,8-diazabicyclo[3.2.1]octan-3-yl)pyridin-3-yl)ethynyl)benzyl)-3,6,13-trioxo-5-(1,1,1-trifluoro-2-methylpropan-2-yl)-2-oxa-4,7,11,12-tetraazahexadecan-14-yl)carbamate] | 3.56 nM | <0.11 L/H/kg | 0.22 L/H/kg | 
COC(=O)N[C@H](C(=O)NN(Cc1c(F)cc(-c2ccn(CC(F)F)n2)cc1F)C[C@H](O)[C@H](Cc1ccc(C#Cc2cnc(N3CC4CCC(C3)N4C3COC3)nc2)cc1)NC(=O)[C@@H](NC(=O)OC)C(C)(C)C(F)(F)F)C(C)(C)C [Example 7, methyl ((5S,8S,9S,14S)-11-(4-(1-(2,2-difluoroethyl)-1H-pyrazol-3-yl)-2,6-difluorobenzyl)-9-hydroxy-15,15-dimethyl-8-(4-((2-(8-(oxetan-3-yl)-3,8-diazabicyclo[3.2.1]octan-3-yl)pyrimidin-5-yl)ethynyl)benzyl)-3,6,13-trioxo-5-(1,1,1-trifluoro-2-methylpropan-2-yl)-2-oxa-4,7,11,12-tetraazahexadecan-14-yl)carbamate] | 3.61 nM | <0.11 L/H/kg | 0.21 L/H/kg | 
COC(=O)N[C@H](C(=O)N[C@@H](Cc1ccc(C#Cc2ccc(N3CC4CCC(C3)N4C3COC3)nc2)cc1)[C@@H](O)CN(Cc1c(F)cc(-c2nnc(C)o2)cc1F)NC(=O)[C@@H](NC(=O)OC)C(C)(C)C(F)(F)F)C(C)(C)C(F)(F)F [Example 11, Methyl ((5S,8S,9S,14S)-11-(2,6-difluoro-4-(5-methyl-1,3,4-oxadiazol-2-yl)benzyl)-16,16,16-trifluoro-9-hydroxy-15,15-dimethyl-8-(4-((6-(8-(oxetan-3-yl)-3,8-diazabicyclo[3.2.1]octan-3-yl)pyridin-3-yl)ethynyl)benzyl)-3,6,13-trioxo-5-(1,1,1-trifluoro-2-methylpropan-2-yl)-2-oxa-4,7,11,12-tetraazahexadecan-14-yl)carbamate] | 3.72 nM | 0.18 L/H/kg | 0.18 L/H/kg | 
COC(=O)N[C@H](C(=O)N[C@@H](Cc1ccc(C#Cc2ccc(N3CC4CCC(C3)N4C3COC3)nc2)cc1)[C@@H](O)CN(Cc1c(F)cc(-c2ccn([C@H]3CCOC3)n2)cc1F)NC(=O)[C@@H](NC(=O)OC)C(C)(C)C(F)(F)F)C(C)(C)C(F)(F)F [Example 14, Methyl ((5S,8S,9S,14S)-11-(2,6-difluoro-4-(1-((S)-tetrahydrofuran-3-yl)-1H-pyrazol-3-yl)benzyl)-16,16,16-trifluoro-9-hydroxy-15,15-dimethyl-8-(4-((6-(8-(oxetan-3-yl)-3,8-diazabicyclo[3.2.1]octan-3-yl)pyridin-3-yl)ethynyl)benzyl)-3,6,13-trioxo-5-(1,1,1-trifluoro-2-methylpropan-2-yl)-2-oxa-4,7,11,12-tetraazahexadecan-14-yl)carbamate] | 4.39 nM | 0.66 L/H/kg | 1.13 L/H/kg | 
COC(=O)N[C@H](C(=O)N[C@@H](Cc1ccc(C#Cc2ccc(N3CC4CCC(C3)N4C3COC3)nc2)cc1)[C@@H](O)CN(Cc1c(F)cc(-c2ccn(CC(C)(C)O)n2)cc1F)NC(=O)[C@@H](NC(=O)OC)C(C)(C)C(F)(F)F)C(C)(C)C(F)(F)F [Example 16, Methyl ((5S,8S,9S,14S)-11-(2,6-difluoro-4-(1-(2-hydroxy-2-methylpropyl)-1H-pyrazol-3-yl)benzyl)-16,16,16-trifluoro-9-hydroxy-15,15-dimethyl-8-(4-((6-(8-(oxetan-3-yl)-3,8-diazabicyclo[3.2.1]octan-3-yl)pyridin-3-yl)ethynyl)benzyl)-3,6,13-trioxo-5-(1,1,1-trifluoro-2-methylpropan-2-yl)-2-oxa-4,7,11,12-tetraazahexadecan-14-yl)carbamate] | 4.64 nM | <0.11 L/H/kg | 0.45 L/H/kg | 
COC(=O)N[C@H](C(=O)N[C@@H](Cc1ccc(C#Cc2ccc(N3CC4CCC(C3)N4C(=O)[C@@H]3CCCO3)nc2)cc1)[C@@H](O)CN(Cc1c(F)cc(-c2cnn(C(F)F)c2)cc1F)NC(=O)[C@@H](NC(=O)OC)C(C)(C)C(F)(F)F)C(C)(C)C(F)(F)F [Example 18, Methyl ((5S,8S,9S,14S)-11-(4-(1-(difluoromethyl)-1H-pyrazol-4-yl)-2,6-difluorobenzyl)-16,16,16-trifluoro-9-hydroxy-15,15-dimethyl-3,6,13-trioxo-8-(4-((6-(8-((S)-tetrahydrofuran-2-carbonyl)-3,8-diazabicyclo[3.2.1]octan-3-yl)pyridin-3-yl)ethynyl)benzyl)-5-(1,1,1-trifluoro-2-methylpropan-2-yl)-2-oxa-4,7,11,12-tetraazahexadecan-14-yl)carbamate] | 5 nM | 0.13 L/H/kg | 1.03 L/H/kg | 
COC(=O)N[C@H](C(=O)N[C@@H](Cc1ccc(C#Cc2ccc(N3C4CCC3CN(C3COC3)C4)nc2)cc1)[C@@H](O)CN(Cc1c(F)cc(-c2cnn(C(F)F)c2)cc1F)NC(=O)[C@@H](NC(=O)OC)C(C)(C)C(F)(F)F)C(C)(C)C(F)(F)F [Example 19, methyl ((5S,8S,9S,14S)-11-(4-(1-(difluoromethyl)-1H-pyrazol-4-yl)-2,6-difluorobenzyl)-16,16,16-trifluoro-9-hydroxy-15,15-dimethyl-8-(4-((6-(3-(oxetan-3-yl)-3,8-diazabicyclo[3.2.1]octan-8-yl)pyridin-3-yl)ethynyl)benzyl)-3,6,13-trioxo-5-(1,1,1-trifluoro-2-methylpropan-2-yl)-2-oxa-4,7,11,12-tetraazahexadecan-14-yl)carbamate] | 8.43 nM | <0.11 L/H/kg | 0.29 L/H/kg | 
CCN1C2CCC1CN(c1ccc(C#Cc3ccc(C[C@H](NC(=O)[C@@H](NC(=O)OC)C(C)(C)C(F)(F)F)[C@@H](O)CN(Cc4c(F)cc(-c5ccccn5)cc4F)NC(=O)[C@@H](NC(=O)OC)C(C)(C)C(F)(F)F)cc3)cn1)C2 [Example 241, methyl ((5S,8S,9S,14S)-11-(2,6-difluoro-4-(pyridin-2-yl)benzyl)-8-(4-((6-(8-ethyl-3,8-diazabicyclo[3.2.1]octan-3-yl)pyridin-3-yl)ethynyl)benzyl)-16,16,16-trifluoro-9-hydroxy-15,15-dimethyl-3,6,13-trioxo-5-(1,1,1-trifluoro-2-methylpropan-2-yl)-2-oxa-4,7,11,12-tetraazahexadecan-14-yl)carbamate] | 6.57 nM |  |  | 
COC(=O)N[C@H](C(=O)N[C@@H](Cc1ccc(C#Cc2ccc(N3CC4CCC(C3)N4C)nc2)cc1)[C@@H](O)CN(Cc1c(F)cc(-c2ccccn2)cc1F)NC(=O)[C@@H](NC(=O)OC)C(C)(C)C(F)(F)F)C(C)(C)C(F)(F)F [Example 242, methyl ((5S,8S,9S,14S)-11-(2,6-difluoro-4-(pyridin-2-yl)benzyl)-16,16,16-trifluoro-9-hydroxy-15,15-dimethyl-8-(4-((6-(8-methyl-3,8-diazabicyclo[3.2.1]octan-3-yl)pyridin-3-yl)ethynyl)benzyl)-3,6,13-trioxo-5-(1,1,1-trifluoro-2-methylpropan-2-yl)-2-oxa-4,7,11,12-tetraazahexadecan-14-yl)carbamate] | 3.45 nM |  |  | 
COC(=O)N[C@H](C(=O)NN(Cc1ccc(-c2cnn(C(F)F)c2)cc1)C[C@H](O)[C@H](Cc1ccc(C#Cc2ccc(N3CC4CCC(C3)N4C3COC3)nc2)cc1)NC(=O)[C@@H](NC(=O)OC)C(C)(C)C(F)(F)F)C(C)(C)C [Example 243, methyl ((5S,8S,9S,14S)-11-(4-(1-(difluoromethyl)-1H-pyrazol-4-yl)benzyl)-9-hydroxy-15,15-dimethyl-8-(4-((6-(8-(oxetan-3-yl)-3,8-diazabicyclo[3.2.1]octan-3-yl)pyridin-3-yl)ethynyl)benzyl)-3,6,13-trioxo-5-(1,1,1-trifluoro-2-methylpropan-2-yl)-2-oxa-4,7,11,12-tetraazahexadecan-14-yl)carbamat] | 5.32 nM |  |  | 
COC(=O)N[C@H](C(=O)N[C@@H](Cc1ccc(C#Cc2ccc(N3CC4CCC(C3)N4C3COC3)nc2)cc1)[C@@H](O)CN(Cc1ccc(-c2ccccn2)cc1F)NC(=O)[C@@H](NC(=O)OC)C(C)(C)C(F)(F)F)C(C)(C)C(F)(F)F [Example 245, Methyl ((5S,8S,9S,14S)-16,16,16-trifluoro-11-(2-fluoro-4-(pyridin-2-yl)benzyl)-9-hydroxy-15,15-dimethyl-8-(4-((6-(8-(oxetan-3-yl)-3,8-diazabicyclo[3.2.1]octan-3-yl)pyridin-3-yl)ethynyl)benzyl)-3,6,13-trioxo-5-(1,1,1-trifluoro-2-methylpropan-2-yl)-2-oxa-4,7,11,12-tetraazahexadecan-14-yl)carbamate] | 3.59 nM |  |  | 
methyl ((5S,8S,9S,14S)-11-(2-chloro-6-fluoro-(pyridin-2-yl)benzyl)-16-fluoro-5-(1-fluoro-2-methylpropan-2-yl)-9-hydroxy-15,15-dimethyl-3,6,13-trioxo-8-(4-((6-(8-(2,2,2-trifluoroethyl)-3,8-diazabicyclo[3.2.1]octan-3-yl)pyridin-3-yl)ethynyl)benzyl)-2-oxa-4,7,11,12-tetraazahexadecan-14-yl)carbamate [Example 244] |  |  |  | 19.5 nM
